Experimental findings from US20250171438A1 (Agios Pharmaceuticals, Inc., priority 2022, published 2025) are described below.

This assay deals with T1, human PAH with the R408W mutation (Homo sapiens, UniProt P00439, R408W).
T1 construct: expressed in transfected cells
T1 sequence (P00439 1-452 R408W): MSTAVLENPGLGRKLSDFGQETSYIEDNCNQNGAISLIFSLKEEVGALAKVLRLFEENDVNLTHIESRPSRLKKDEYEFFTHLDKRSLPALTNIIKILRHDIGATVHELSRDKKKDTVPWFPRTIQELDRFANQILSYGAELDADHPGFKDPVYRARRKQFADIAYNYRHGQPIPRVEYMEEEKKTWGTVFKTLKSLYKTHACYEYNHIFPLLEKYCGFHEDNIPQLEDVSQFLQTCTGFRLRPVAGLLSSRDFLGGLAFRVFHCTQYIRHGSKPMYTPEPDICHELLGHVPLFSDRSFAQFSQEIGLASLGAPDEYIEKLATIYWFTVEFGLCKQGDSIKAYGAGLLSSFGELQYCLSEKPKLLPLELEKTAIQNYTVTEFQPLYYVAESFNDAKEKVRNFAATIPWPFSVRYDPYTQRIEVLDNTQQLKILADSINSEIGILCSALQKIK
In words: Cell Based Phenylalanine Flux Assay. The conditions noted are these: A375 cells expressing human R408W PAH, 13C-Tyrosine by LC-MS, average where tested multiple times. Further details: scale not given here.

[1] abbreviates: 24 hrs compound incubation, read-out: AC50.
Where [2] appears, read: 24 hrs with compound, read-out: AC50.

Read-outs that look alike come from different tables or passages of the source.

With `Cc1nc(C(C)(C)O)oc1C(=O)N1CCc2[nH]cnc2[C@H]1c1nc2c(C(F)(F)F)cccc2s1` [Example 2115, (S)-(2-(2-hydroxypropan-2-yl)-4-methyloxazol-5-yl)(4-(4-(trifluoromethyl)benzo[d]thiazol-2-yl)-6,7-dihydro-1H-imidazo[4,5-c]pyridin-5(4H)-yl)methanone], under setting [1], the AC50 was in the range of 0.5 to 1 µM. Still for that read-out and setting: the result for `Cc1c(-c2ncc(C(=O)N3CCc4[nH]cnc4[C@@H]3c3nc4ccccc4s3)o2)cnn1C` [Example 1384, (R)-(4-(benzo[d]thiazol-2-yl)-6,7-dihydro-1H-imidazo[4,5-c]pyridin-5(4H)-yl)(2-(1,5-dimethyl-1H-pyrazol-4-yl)oxazol-5-yl)methanone] reads 1 to 5 µM.

As to `CS(=O)(=O)N1CC(C(=O)N2CCc3[nH]cnc3C2c2nc3ccccc3s2)C1` (stereo not drawn), under setting [2], the AC50 is greater than 5 µM. Regarding `O=C(c1ocnc1CF)N1CCc2[nH]cnc2[C@@H]1c1nc2c(F)cccc2s1` [Example 2042, (R)-(4-(4-fluorobenzo[d]thiazol-2-yl)-6,7-dihydro-1H-imidazo[4,5-c]pyridin-5(4H)-yl)(4-(fluoromethyl)oxazol-5-yl)methanone], the AC50 under setting [1] was in the range of 1 to 5 µM. Still for that read-out and setting: next, `CC(O)c1nc(Cl)c(C(=O)N2CCc3[nH]cnc3[C@H]2c2nc3c(F)cccc3s2)o1` (single isomer, unassigned) [Example 2080]: 0.5 to 1 µM; `O=C(c1nnc(-c2ccccn2)o1)N1CCc2[nH]cnc2[C@H]1c1nc2ccccc2s1` [Example 1439]: less than 0.5 µM; `O=C(c1cncs1)N1CCc2[nH]cnc2[C@H]1c1ncc(-c2ccccc2)s1` [Example 2145]: less than 0.5 µM. As to `O=C(c1nnc(-c2ccccc2)s1)N1CCc2[nH]cnc2[C@@H]1c1nc2ccccc2s1` [Example 1420, (R)-(4-(benzo[d]thiazol-2-yl)-6,7-dihydro-1H-imidazo[4,5-c]pyridin-5(4H)-yl)(5-phenyl-1,3,4-thiadiazol-2-yl)methanone], the AC50 under setting [1] is greater than 5 µM. Consider `C[C@H]1CN(C(=O)c2nnc(-c3ccc(F)cn3)o2)[C@@H](c2nc3ccccc3s2)c2nc[nH]c21` [Example 1755, ((4R,7S)-4-(benzo[d]thiazol-2-yl)-7-methyl-6,7-dihydro-1H-imidazo[4,5-c]pyridin-5(4H)-yl)(5-(5-fluoropyridin-2-yl)-1,3,4-oxadiazol-2-yl)methanone], for which the AC50 under setting [1] is greater than 5 µM.

On to `O=C(c1oc(C2(O)CCC2)nc1C(F)(F)F)N1CCc2[nH]cnc2[C@H]1c1nc2ccccc2s1` [Example 1565], for which the AC50 under setting [1] was less than 0.5 µM. Still for that read-out and setting: next, `Cc1nn(C)c(C)c1-c1ncc(C(=O)N2CCc3[nH]cnc3[C@H]2c2nc3ccccc3s2)s1` [Example 1405]: less than 0.5 µM. Consider `O=C(c1nnc(-c2ccc(C(F)(F)F)cn2)o1)N1CCc2[nH]cnc2[C@@H]1c1nc2ccccc2s1` [Example 1829, (R)-(4-(benzo[d]thiazol-2-yl)-6,7-dihydro-1H-imidazo[4,5-c]pyridin-5(4H)-yl)(5-(5-(trifluoromethyl)pyridin-2-yl)-1,3,4-oxadiazol-2-yl)methanone], for which, under setting [1], the AC50 lay within 1 to 5 µM. On to `O=C(c1cn(-c2ccccn2)nc1Cl)N1CCc2[nH]cnc2[C@@H]1c1nc2ccccc2s1` [Example 1908, (R)-(4-(benzo[d]thiazol-2-yl)-6,7-dihydro-1H-imidazo[4,5-c]pyridin-5(4H)-yl)(3-chloro-1-(pyridin-2-yl)-1H-pyrazol-4-yl)methanone], for which the AC50 under setting [1] fell in the range of 1 to 5 µM. Turning to `Cn1ncnc1C(=O)N1CCc2[nH]cnc2C1c1nc2c(F)cccc2s1` (stereo not drawn), the AC50 under setting [2] was 1 to 5 µM.

In the case of `O=C(c1scnc1Cl)N1CCc2[nH]cnc2[C@H]1c1nc2c(F)cccc2s1` [Example 1640], the AC50 under setting [1] lay in the range of 0.5 to 1 µM. Turning to `O=C(Cc1nc(C(F)(F)F)cs1)N1CCc2[nH]cnc2C1c1nc2ccc(F)cc2[nH]1` (stereo not drawn), the AC50 under setting [2] is greater than 5 µM. Consider `O=C(c1nc2cc(F)ccc2s1)N1CCc2[nH]cnc2[C@H]1c1nc2ccccc2[nH]1` [(S)-(4-(1H-benzo[d]imidazol-2-yl)-6,7-dihydro-1H-imidazo[4,5-c]pyridin-5(4H)-yl)(5-fluorobenzo[d]thiazol-2-yl)methanone], for which the AC50 under setting [2] fell in the range of 1 to 5 µM. For the molecule `O=C(c1cnc(Br)s1)N1CCc2[nH]cnc2C1c1nc2ccccc2s1` (stereo not drawn), the AC50 under setting [2] was greater than 5 µM.

For `Cn1cc(-c2nc(C3CC3)c(C(=O)N3CCc4[nH]cnc4[C@H]3c3nc4ccccc4s3)o2)cn1` [Example 1518], the AC50 under setting [1] was less than 0.5 µM. On to `O=C(c1nnc(C2CC2)o1)N1CCc2[nH]cnc2[C@H]1c1nc2c(F)cccc2s1` [Example 1443], for which, under setting [1], the AC50 is less than 0.5 µM. The same measure, in the same setting: the result for `Cn1cc(-c2nnc(C(=O)N3CCc4[nH]cnc4[C@H]3c3nc4c(F)cccc4s3)o2)cn1` [Example 1728, (S)-(4-(4-fluorobenzo[d]thiazol-2-yl)-6,7-dihydro-1H-imidazo[4,5-c]pyridin-5(4H)-yl)(5-(1-methyl-1H-pyrazol-4-yl)-1,3,4-oxadiazol-2-yl)methanone] reads less than 0.5 µM.

On to `COCc1ccc2c(C(=O)N3CCc4[nH]cnc4[C@@H]3c3nc4ccccc4s3)c(C(F)F)nn2c1` (single isomer, unassigned), for which the AC50 result (24 hrs with compound) was “E, E”. In the case of `O=C(Cc1nc2ccccc2s1)N1CCc2[nH]cnc2C1c1nc2ccccc2s1` (stereo not drawn), the AC50 under setting [2] is 1 to 5 µM. On to `O=C(c1ccon1)N1CCc2[nH]cnc2C1c1nc2ccccc2s1` (stereo not drawn), for which the concentration at half-maximal activity (AC50) under setting [2] is 1 to 5 µM.

Take `Cc1nc(-c2ccccn2)c(C(=O)N2CCc3[nH]cnc3C2c2nc3ccccc3s2)o1` (stereo not drawn): the AC50 under setting [2] is greater than 5 µM. In the case of `CC(C)(F)c1ncc(C(=O)N2CCc3[nH]cnc3[C@@H]2c2nc3c(F)cccc3s2)o1` [Example 1488, (R)-(4-(4-fluorobenzo[d]thiazol-2-yl)-6,7-dihydro-1H-imidazo[4,5-c]pyridin-5(4H)-yl)(2-(2-fluoropropan-2-yl)oxazol-5-yl)methanone], under setting [1], the AC50 was 0.5 to 1 µM. Regarding `O=C(C1CC1F)N1CCc2[nH]cnc2C1c1nc2ccccc2s1` (stereo not drawn), the AC50 under setting [2] was in the range of 1 to 5 µM. For `[2H]c1nc2c([nH]1)CCN(C(=O)c1cnco1)[C@@H]2c1nc2c(F)cccc2s1` [Example 2161, [(4S)-2-deuterio-4-(4-fluoro-1,3-benzothiazol-2-yl)-1,4,6,7-tetrahydroimidazo[4,5-c]pyridin-5-yl]-oxazol-5-yl-methanone], under setting [1], the AC50 was in the range of 0.5 to 1 µM. Turning to `O=C(c1cnn2cc(Br)ccc12)N1CCc2[nH]cnc2C1c1nc2ccc(Br)cc2[nH]1` (stereo not drawn), under setting [2], the AC50 lay within 1 to 5 µM.

Take `O=C(c1cnn2ccc(Cl)cc12)N1CCc2[nH]cnc2[C@@H]1c1nc2ccccc2s1` [Example 1108, (R)-(4-(benzo[d]thiazol-2-yl)-6,7-dihydro-1H-imidazo[4,5-c]pyridin-5(4H)-yl)(5-chloropyrazolo[1,5-a]pyridin-3-yl)methanone]: the AC50 under setting [1] lay within 1 to 5 µM. As for `O=C(c1cnn2ccccc12)N1CCc2[nH]cnc2[C@H]1c1nc2c(Br)cccc2s1` [Example 1241, (S)-(4-(4-bromobenzo[d]thiazol-2-yl)-6,7-dihydro-1H-imidazo[4,5-c]pyridine-5(4H)-yl)(pyrazolo [1,5-a]pyridin-3-yl)methanone], under setting [1], the AC50 was in the range of 0.5 to 1 µM. Turning to `N#Cc1n[nH]cc1C(=O)N1CCc2[nH]cnc2C1c1nc2ccccc2s1` (stereo not drawn), the AC50 under setting [2] lay in the range of 1 to 5 µM. Same read-out and setting: the result for `Cc1nnc(CC(=O)N2CCc3[nH]cnc3[C@H]2c2nc3ccccc3[nH]2)s1` [(S)-1-(4-(1H-benzo[d]imidazol-2-yl)-1,4,6,7-tetrahydro-5H-imidazo[4,5-c]pyridin-5-yl)-2-(5-methyl-1,3,4-thiadiazol-2-yl)ethan-1-one] reads greater than 5 µM.

In general, AC50 refers to the midpoint of the concentration-response curve, whichever way the signal moves.
